Reference: PMC11345829, “Discovery of Potent Isoquinolinequinone N-Oxides to Overcome Cancer Multidrug Resistance” (Journal of Medicinal Chemistry, 2024)

Experiments:
NCI-H460/R = test: SRB cell growth inhibition assay; type: cell-based, human; conditions: for selectivity ratio NSCLC: GI50 sensitive NCI-H460 / GI50 MDR NCI-H460/R; for GI50: Homo sapiens, NCI-H460, 48 h, NSCLC MDR, mean ± SEM; for GI50 / GI50 concentration range against MDR NCI-H460/R: SRB assay; for GI50 concentration range against MDR NCI-H460/R: in words
Procedure: Two distinct pairs of counterpart drug-sensitive and MDR human tumor cell lines were used, namely the non-small lung cancer (NSCLC) NCI-H460 (same cell line as in the NCI screen) and its MDR counterpart cell line NCI-[…] and the colorectal cancer DLD1 and its MDR counterpart cell line DLD1-TxR (Table 3). The screening was performed using the SRB assay, and the GI50 for each compound was determined by interpolation on the attained concentration-response curves and compared with NCI60 screening data (SI, Figures S62-S63; Table S21). Two pairs of drug-sensitive and multidrug-resistant (MDR) cell lines from human nonsmall cell lung cancer (NSCLC), NCI-H460 and NCI-[…], and colorectal cancer, DLD1 and DLD1-TxR, kindly provided by Dr M. […] The A549 cell line was maintained in Dulbecco's Modified Eagle Medium (DMEM) supplemented with 4.5 g/L Glucose with UltraGlutamine with sodium pyruvate (Lonza, Basel Stücki, Switzerland), enriched with 10% fetal bovine serum (FBS; Biowest, Nuaillé, France). […] For the sulforhodamine B (SRB) and 3D cell culture assays, the media were supplemented with 5% FBS. The remaining experiments were performed with medium supplemented with 10% FBS. […] The SRB assay was performed as previously described.[78],[79] Briefly, after fixing cells with 10% (w/v) ice-cold trichloroacetic acid (Merck Life Science), the proteins were stained with 0.4% of SRB (Merck Life Science) in acetic acid (Merck Life Science). Following washing steps in acetic acid, the bound dye was solubilized with 10 mM Tris base solution (Merck Life Science). Absorbance was measured at 510 nm in a multiplate reader (Synergy Mx, Biotek Instruments Inc., Winooski, Vermont, USA) using the Gen5 software (Biotek Instruments Inc.).

OVCAR-3 = test: NCI60 five-dose GI50; type: cell-based; conditions: Homo sapiens, ovarian
Source text: (§1) The concentration−response curve generated enables the determination of three criteria, GI50 (drug concentration at which 50% of cell growth is inhibited), total growth inhibition (TGI) and LC50 (drug concentration at which 50% of tumor cells are killed) which can be used to compare effectiveness against any compound tested in the screen since its inception.
(§2) S2.1 NCI Screening Assay Experimental details
(§3) NCI Screening Assay Experimental: Cancer cell growth assays (NCI60 screening) 5,6 One-dose study: Tested compounds were initially solubilised in DMSO, diluted into RPMI 1640 and 5% fetal bovine serum/L-glutamine, and added to 96-well plates containing cell lines previously cultured for 24 h. After 48 h incubation, the media were removed, and the cells were fixed and stained with sulforhodamine B to determine overall percent growth/ total protein content. Unbound dye was removed with five washes of 1% acetic acid, and the plates were allowed to air dry. The dye was then resolubilised in Tris buffer, and the colorimetric absorbance was measured (515 nm). Growth inhibition was measured relative to the response generated from proliferating cells cultured under identical conditions for 48 h. Data from one-dose experiments pertains to the percentage growth at […]
(§4) Five-dose study: Serial 5 × 10-fold dilution from an initial DMSO stock solution was performed, prior to incubation at each individual concentration (10 nM, 100 nM, 1 μM, 10 μM and 100 μM). Using seven absorbance measurements (time zero (Tz), control growth (C), and test growth in the presence of drug at the five concentration levels (Ti)), the percentage growth was calculated at each of the drug concentrations levels. Percentage growth inhibition was calculated as: [(Ti − Tz)/(C − Tz)] × 100 for concentrations for which Ti ≥ Tz, [(Ti − Tz)/Tz] × 100 for concentrations for which Ti < Tz. Three dose response parameters were calculated for each experimental agent. […]
(§5) was calculated from [(Ti − Tz)/(C − Tz)] × 100 = 50, which is the drug concentration resulting in a 50% reduction in the net protein increase (as measured by sulforhodamine B staining) in control cells during the drug incubation. The drug concentration resulting in total growth inhibition (TGI) was calculated from Ti = Tz. The LC50 (concentration of drug resulting in a 50% reduction in the measured protein at the end of the drug treatment as compared to that at the beginning) indicating a net loss of cells following treatment was calculated from [(Ti − Tz)/Tz] × 100 = −50. Values were calculated for each of these three parameters if the level of activity was reached; however, if the effect was not reached or was exceeded, the value for that parameter was expressed as greater or less than the maximum or minimum concentration tested.

LOX-IMVI = test: NCI60 five-dose GI50; type: cell-based; conditions: Homo sapiens, melanoma
Source text: as §1, §2, §3, §4, §5

K-562 = test: NCI60 five-dose GI50; type: cell-based; conditions: Homo sapiens, K562, five dose; leukemia
Source text: as §1, §2, §3, §4, §5

MCF-7 = test: NCI60 five-dose GI50; type: cell-based; conditions: Homo sapiens, MCF7, breast
Source text: as §1, §2, §3, §4, §5

UACC-62 = test: NCI60 five-dose GI50; type: cell-based; conditions: Homo sapiens, melanoma
Source text: as §1, §2, §3, §4, §5

COLO-205 = test: NCI60 five-dose GI50; type: cell-based; conditions: Homo sapiens, colon
Source text: as §1, §2, §3, §4, §5

NCI-ADR/RES = test: NCI60 five-dose GI50; type: cell-based; conditions: Homo sapiens
Source text: as §1, §2, §3, §4, §5

SMILES	GI50 (NCI-H460/R)	GI50 concentration range against MDR NCI-H460/R (NCI-H460/R)	selectivity ratio NSCLC (NCI-H460/R)	GI50 (OVCAR-3)	GI50 (LOX-IMVI)	GI50 (K-562)	GI50 (MCF-7)	GI50 (UACC-62)	GI50 (COLO-205)	GI50 (NCI-ADR/RES; MDR ovarian)	GI50 (NCI-ADR/RES)
COC(=O)c1c2c(c[n+]([O-])c1C)C(=O)C=CC2=O [Compound 23]	17900 ± 3360 nM	–	2.1	320 nM	1960 nM	2510 nM	1650 nM	1810 nM	1850 nM	3270 nM	–
COC(=O)c1c2c(c(C)[n+]([O-])c1C)C(=O)C(NCc1ccc(F)cc1)=CC2=O [Compound 4]	2250 ± 270 nM	–	1.2	319 nM	1940 nM	2430 nM	1110 nM	1250 nM	376 nM	1680 nM	–
COc1cccc2c1C(=O)c1c(O)c3c(c(O)c1C2=O)C[C@@](O)(C(=O)CO)C[C@@H]3O[C@H]1C[C@H](N)[C@H](O)[C@H](C)O1 [doxorubicin, reference compound]	2460 ± 40 nM	–	–	–	–	–	–	–	–	–	–

Continued, in another order:

GI50 (NCI-H460/R)	GI50 concentration range against MDR NCI-H460/R (NCI-H460/R)	SMILES	selectivity ratio NSCLC (NCI-H460/R)	GI50 (OVCAR-3)	GI50 (LOX-IMVI)	GI50 (K-562)	GI50 (MCF-7)	GI50 (UACC-62)	GI50 (COLO-205)	GI50 (NCI-ADR/RES; MDR ovarian)	GI50 (NCI-ADR/RES)
830 ± 20 nM	nanomolar range	COC(=O)c1c2c(c(C)[n+]([O-])c1C)C(=O)C=C(NCc1ccccc1)C2=O [Compound 2]	1.7	–	–	–	–	–	–	–	–
380 ± 20 nM	nanomolar range	COC(=O)c1c2c(c[n+]([O-])c1C)C(=O)C(NCc1ccccc1)=CC2=O [Compound 24]	2	270 nM	300 nM	620 nM	200 nM	350 nM	330 nM	310 nM	–
360 ± 110 nM	nanomolar range	COC(=O)c1c2c(c(C)[n+]([O-])c1C)C(=O)C=C(NCc1ccc(F)cc1)C2=O [Compound 5]	1.6	240 nM	226 nM	352 nM	296 nM	229 nM	260 nM	487 nM	–
340 ± 30 nM	nanomolar range	COC(=O)c1c2c(c[n+]([O-])c1C)C(=O)C=C(NCc1ccccc1)C2=O [Compound 25]	1	48 nM	190 nM	250 nM	150 nM	160 nM	160 nM	230 nM	227 nM
4840 ± 740 nM	–	COC(=O)c1c2c(c(C)[n+]([O-])c1C)C(=O)C(NCc1ccc(O)cc1)=CC2=O [Compound 20]	1.2	266 nM	938 nM	1630 nM	416 nM	1360 nM	579 nM	2200 nM	–
